Assay results published in ChEMBL document CHEMBL1201862, “PubChem BioAssay data set” (2004).
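Values below derive from 48-hour exposures of cells grown in 96-well plates, with endpoints linearly interpolated between the two concentrations bracketing the appropriate inhibition level. Here, GI50 denotes the concentration required for 50% inhibition of growth.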 Calls of active or inactive are those of the source. Cut-off read from the data, not from the text of the source: active = GI50 up to about 1.1 µM and inactive = higher.

Legend:
Assay in all cases: NCI anticancer screen, dose series, 48 h
HCC 2998 = tested on: HCC 2998
KM12 = tested on: KM12
EKVX = tested on: EKVX
786-0 = tested on: 786-0
SK-MEL-28 = tested on: SK-MEL-28
HOP-62 = tested on: HOP-62
T47D = tested on: T47D
OVCAR-8 = tested on: OVCAR-8
SN12C = tested on: SN12C
TK-10 = tested on: TK-10
PC-3 = tested on: PC-3
SF-295 = tested on: SF-295
SK-OV-3 = tested on: SK-OV-3
HCT-15 = tested on: HCT-15
CAKI-1 = tested on: CAKI-1
Malme-3M = tested on: Malme-3M
A549 = tested on: A549
SNB-75 = tested on: SNB-75
MDA-N = tested on: MDA-N
CCRF-CEM = tested on: CCRF-CEM
SW-620 = tested on: SW-620
UACC-62 = tested on: UACC-62
M14 = tested on: M14
NCI-H23 = tested on: NCI-H23
RXF 393 = tested on: RXF 393
MCF7 = tested on: MCF7
RPMI-8226 = tested on: RPMI-8226
SK-MEL-5 = tested on: SK-MEL-5
MDA-MB-231 = tested on: MDA-MB-231
SR = tested on: SR
DU-145 = tested on: DU-145
COLO 205 = tested on: COLO 205
MOLT-4 = tested on: MOLT-4
IGROV-1 = tested on: IGROV-1
SF-268 = tested on: SF-268
SK-MEL-2 = tested on: SK-MEL-2
OVCAR-3 = tested on: OVCAR-3
UACC-257 = tested on: UACC-257
LOX IMVI = tested on: LOX IMVI
NCI/ADR-RES = tested on: NCI/ADR-RES
MDA-MB-435 = tested on: MDA-MB-435
SF-539 = tested on: SF-539
NCI-H226 = tested on: NCI-H226
HT-29 = tested on: HT-29
HOP-92 = tested on: HOP-92
ACHN = tested on: ACHN
HL-60 = tested on: HL-60
A498 = tested on: A498
UO-31 = tested on: UO-31
U-251 = tested on: U-251
NCI-H460 = tested on: NCI-H460
SNB-19 = tested on: SNB-19
HCT-116 = tested on: HCT-116
OVCAR-4 = tested on: OVCAR-4
OVCAR-5 = tested on: OVCAR-5
K562 = tested on: K562
NCI-H522 = tested on: NCI-H522
Hs-578T = tested on: Hs-578T

Structure (SMILES): c1ccc(COC[C@H]2O[C@@H](c3ccccc3)C[C@@H](OCc3ccccc3)C2OCc2ccccc2)cc1 (stereo partly drawn)
- GI50 (HCC 2998): > 10 µM (inactive)
- GI50 (KM12): > 10 µM (inactive)
- GI50 (EKVX): > 10 µM (inactive)
- GI50 (786-0): > 10 µM (inactive)
- GI50 (SK-MEL-28): > 10 µM (inactive)
- GI50 (HOP-62): > 10 µM (inactive)
- GI50 (T47D): > 10 µM (inactive)
- GI50 (OVCAR-8): > 10 µM (inactive)
- GI50 (SN12C): > 10 µM (inactive)
- GI50 (TK-10): > 10 µM (inactive)
- GI50 (PC-3): > 10 µM (inactive)
- GI50 (SF-295): > 10 µM (inactive)
- GI50 (SK-OV-3): > 10 µM (inactive)
- GI50 (HCT-15): > 10 µM
- GI50 (CAKI-1): > 10 µM (inactive)
- GI50 (Malme-3M): > 10 µM (inactive)
- GI50 (A549): > 10 µM (inactive)
- GI50 (SNB-75): > 10 µM (inactive)
- GI50 (MDA-N): > 10 µM (inactive)
- GI50 (CCRF-CEM): > 10 µM (inactive)
- GI50 (SW-620): > 10 µM (inactive)
- GI50 (UACC-62): > 10 µM (inactive)
- GI50 (M14): > 10 µM (inactive)
- GI50 (NCI-H23): > 10 µM (inactive)
- GI50 (RXF 393): > 10 µM (inactive)
- GI50 (MCF7): > 10 µM (inactive)
- GI50 (RPMI-8226): > 10 µM (inactive)
- GI50 (SK-MEL-5): > 10 µM (inactive)
- GI50 (MDA-MB-231): > 10 µM (inactive)
- GI50 (SR): > 10 µM (inactive)
- GI50 (DU-145): > 10 µM (inactive)
- GI50 (COLO 205): > 10 µM (inactive)
- GI50 (MOLT-4): > 10 µM (inactive)
- GI50 (IGROV-1): > 10 µM (inactive)
- GI50 (SF-268): > 10 µM (inactive)

Structure (SMILES): N#Cc1c(N)nc2c3c1NC(=O)C(C(N)=O)C3c1ccccc1O2 (stereo not drawn)
- GI50 (SK-MEL-2): > 100 µM (inactive)
- GI50 (HCC 2998): > 100 µM (inactive)
- GI50 (KM12): > 100 µM (inactive)
- GI50 (EKVX): 37.3 µM (inactive)
- GI50 (OVCAR-3): > 100 µM (inactive)
- GI50 (786-0): 37.9 µM (inactive)
- GI50 (SK-MEL-28): > 100 µM (inactive)
- GI50 (UACC-257): > 100 µM (inactive)
- GI50 (LOX IMVI): > 100 µM (inactive)
- GI50 (HOP-62): 60.8 µM (inactive)
- GI50 (T47D): 95.9 µM (inactive)
- GI50 (NCI/ADR-RES): > 100 µM (inactive)
- GI50 (MDA-MB-435): > 100 µM (inactive)
- GI50 (SF-539): 74 µM (inactive)
- GI50 (OVCAR-8): 42.5 µM (inactive)
- GI50 (SN12C): > 100 µM (inactive)
- GI50 (TK-10): > 100 µM (inactive)
- GI50 (NCI-H226): > 100 µM (inactive)
- GI50 (PC-3): > 100 µM (inactive)
- GI50 (SF-295): 32.1 µM (inactive)
- GI50 (HT-29): > 100 µM (inactive)
- GI50 (HOP-92): 12.9 µM (inactive)
- GI50 (ACHN): > 100 µM (inactive)
- GI50 (SK-OV-3): > 100 µM (inactive)
- GI50 (HL-60): 99.3 µM (inactive)
- GI50 (A498): > 100 µM (inactive)
- GI50 (HCT-15): > 100 µM
- GI50 (UO-31): > 100 µM (inactive)
- GI50 (CAKI-1): > 100 µM (inactive)
- GI50 (U-251): > 100 µM (inactive)
- GI50 (Malme-3M): > 100 µM (inactive)
- GI50 (A549): > 100 µM (inactive)
- GI50 (SNB-75): 54.7 µM (inactive)
- GI50 (NCI-H460): > 100 µM (inactive)
- GI50 (MDA-N): > 100 µM (inactive)
- GI50 (SNB-19): 47.9 µM (inactive)
- GI50 (CCRF-CEM): 81.1 µM (inactive)
- GI50 (SW-620): > 100 µM (inactive)
- GI50 (HCT-116): > 100 µM (inactive)
- GI50 (OVCAR-4): 95.5 µM (inactive)
- GI50 (UACC-62): 27.5 µM (inactive)
- GI50 (M14): > 100 µM (inactive)
- GI50 (NCI-H23): 71.8 µM (inactive)
- GI50 (RXF 393): 75.2 µM (inactive)
- GI50 (MCF7): > 100 µM (inactive)
- GI50 (RPMI-8226): 63 µM (inactive)
- GI50 (SK-MEL-5): > 100 µM (inactive)
- GI50 (MDA-MB-231): 28.6 µM (inactive)
- GI50 (SR): 62.5 µM (inactive)
- GI50 (OVCAR-5): > 100 µM (inactive)
- GI50 (K562): > 100 µM (inactive)
- GI50 (DU-145): 67.6 µM (inactive)
- GI50 (NCI-H522): 22.1 µM (inactive)
- GI50 (COLO 205): > 100 µM (inactive)
- GI50 (MOLT-4): > 100 µM (inactive)
- GI50 (IGROV-1): 17.3 µM (inactive)
- GI50 (SF-268): 26.2 µM (inactive)

Structure (SMILES): Cc1cccc(C(O)c2ccncc2)c1O (stereo not drawn)
- GI50 (HCC 2998): > 100 µM (inactive)
- GI50 (KM12): > 100 µM (inactive)
- GI50 (EKVX): > 100 µM (inactive)
- GI50 (OVCAR-3): > 100 µM (inactive)
- GI50 (UACC-257): > 100 µM (inactive)
- GI50 (LOX IMVI): > 100 µM (inactive)
- GI50 (HOP-62): > 100 µM (inactive)
- GI50 (T47D): 12.6 µM (inactive)
- GI50 (NCI/ADR-RES): > 100 µM (inactive)
- GI50 (SF-539): > 100 µM (inactive)
- GI50 (OVCAR-8): > 100 µM (inactive)
- GI50 (SN12C): > 100 µM (inactive)
- GI50 (NCI-H226): > 100 µM (inactive)
- GI50 (PC-3): > 100 µM (inactive)
- GI50 (SF-295): > 100 µM (inactive)
- GI50 (ACHN): > 100 µM (inactive)
- GI50 (HL-60): > 100 µM (inactive)
- GI50 (HCT-15): > 100 µM
- GI50 (UO-31): > 100 µM (inactive)
- GI50 (U-251): > 100 µM (inactive)
- GI50 (A549): > 100 µM (inactive)
- GI50 (SNB-75): 76.6 µM (inactive)
- GI50 (SNB-19): > 100 µM (inactive)
- GI50 (CCRF-CEM): > 100 µM (inactive)
- GI50 (HCT-116): > 100 µM (inactive)
- GI50 (Hs-578T): > 100 µM (inactive)
- GI50 (UACC-62): 25.8 µM (inactive)
- GI50 (M14): > 100 µM (inactive)
- GI50 (NCI-H23): > 100 µM (inactive)
- GI50 (RXF 393): 91.6 µM (inactive)
- GI50 (SK-MEL-5): > 100 µM (inactive)
- GI50 (K562): > 100 µM (inactive)
- GI50 (DU-145): > 100 µM (inactive)
- GI50 (NCI-H522): > 100 µM (inactive)
- GI50 (MOLT-4): > 100 µM (inactive)
- GI50 (SF-268): > 100 µM (inactive)
